In patent publication US7132446B1, “Isolation of a dimer di-gallate, a potent endothelium-dependent vasorelaxing compound” (University of South Florida, priority 2001, dated 2006):

Experiments:
[1] = tested on: blood vessels in vitro; details: background statements; cited from earlier work
[2] = tested on: phenylephrine-contracted endothelium-intact rat aortic rings; assay: Endothelium-dependent relaxation (EDR) bioassay, endothelium-intact aortic rings; assay type: cell-based; details: for threshold concentration (for 10% relaxation): intact aortic rings; for EDR activity (relaxation of endothelium-intact rings): phenylephrine-contracted endothelium-intact rings
Method: Aortic ring preparation and bioassay. The procedure for preparation of rat aortic rings and general aspects of determining mechanical activity has been previously described. Briefly, male Sprague-Dawley rats (200–225 g) were euthanized with an overdose of sodium pentobarbital (100 mg/kg, i.p.), bled, and the thoracic aorta excised, cleaned, and rings (3–4 mm in length) were cut, taking care not to disturb the endothelium. In some instances the endothelium was deliberately removed by gently rubbing the lumen with a curved forceps. The rings were suspended in tissue baths containing a physiologic salt solution (PSS) with the following composition (in millimolar): 118 NaCl; 4.7 KCl; 25 NaHCO3; 1.2 MgSO4; 1.2 NaH2PO4; 0.026 EDTA; 1.5 CaCl2; 11 glucose. The solution was bubbled continuously with O2/CO2 (95%/5%), and maintained at 37° C. Activity was recorded on a Grass polygraph. After equilibration for at least 1 hr under 1.5 g of tension, tissues were contracted submaximally (approximately 80% of Emax) with phenylephrine (˜1 μM), and then 3 μM acetylcholine, a known EDR-active compound, was added to the bath to test for intactness of the endothelium. Rings were washed with PSS three times over the next 45 min. prior to the next sequence. EDR activity of HPLC peaks was determined by first contracting aortic rings with phenylephrine, as above, then generating concentration-response curves for relaxation by adding each peak sample to the bath, beginning with a sub-threshold concentration and adding increasing amounts until maximum relaxation is achieved. To test for endothelium-dependence, denuded aortic rings were used. Successful endothelium removal was established by a lack of relaxation response to 3 μM acetylcholine. […] Statistical methods. Data are presented as means±SEM. EC50s were determined from concentration-response curves, utilizing nonlinear regression analysis software (GraphPad Prizm, San Diego, Calif.).

[3] = tested on: endothelium-denuded rat aortic rings; assay: Relaxation bioassay, endothelium-denuded aortic rings; assay type: cell-based; details: de-endothelialized rings
Method: Aortic ring preparation and bioassay. The procedure for preparation of rat aortic rings and general aspects of determining mechanical activity has been previously described. Briefly, male Sprague-Dawley rats (200–225 g) were euthanized with an overdose of sodium pentobarbital (100 mg/kg, i.p.), bled, and the thoracic aorta excised, cleaned, and rings (3–4 mm in length) were cut, taking care not to disturb the endothelium. In some instances the endothelium was deliberately removed by gently rubbing the lumen with a curved forceps. The rings were suspended in tissue baths containing a physiologic salt solution (PSS) with the following composition (in millimolar): 118 NaCl; 4.7 KCl; 25 NaHCO3; 1.2 MgSO4; 1.2 NaH2PO4; 0.026 EDTA; 1.5 CaCl2; 11 glucose. The solution was bubbled continuously with O2/CO2 (95%/5%), and maintained at 37° C. Activity was recorded on a Grass polygraph. […] EDR activity of HPLC peaks was determined by first contracting aortic rings with phenylephrine, as above, then generating concentration-response curves for relaxation by adding each peak sample to the bath, beginning with a sub-threshold concentration and adding increasing amounts until maximum relaxation is achieved. […]

Oc1cc(O)c2c(c1)OC(c1ccc(O)c(O)c1)C(O)C2O (stereo not drawn) [leucocyanidol]
EDR activity (previous studies) [1]: some activity at lower concentrations

O=C(O[C@@H]1[C@@H](c2c(O)cc(O)c3c2O[C@H](c2ccc(O)c(O)c2)[C@H](OC(=O)c2cc(O)c(O)c(O)c2)C3)c2c(O)cc(O)cc2O[C@@H]1c1ccc(O)c(O)c1)c1cc(O)c(O)c(O)c1 (single isomer, unassigned; peak f2) [peak F2, epicatechin-galloyl-epicatechin-gallate]
threshold concentration (for 10% relaxation) [2]: approximately 0.35 μg/ml
threshold concentration (for 10% relaxation) ([2]; molar value printed in brackets): ~0.4 µM
EDR activity (relaxation of endothelium-intact rings) [2]: relaxed
EDR activity (relaxation of endothelium-intact rings) ([2]; listed as dimer digallate): substantial EDR activity
EC50 ([2]; phenylephrine-contracted intact rings): 760 nM
EC50 for relaxation of intact aortic rings ([2]; phenylephrine-contracted intact rings, mean±SEM, n=4 rats (3–6 concentration-response curves/rat aorta)): 0.67 ± 0.04 µg/mL
relaxing activity on endothelium-denuded rings [3]: no effect

N=C(N)NCCC[C@H](N)C(=O)O [L-arginine, reference compound]
effect on the B2-di-gallate-induced relaxation of intact rings ([2]; added to the bath after peak F2, L-arginine added after NNA): caused the tissue to relax once again
